Source: PubChem BioAssay (NCI)
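Assay format: 96-well plates, 48-hour exposure. Here, GI50 denotes the concentration required for 50% inhibition of growth. TGI marks complete inhibition of growth.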

Experiments:
Assay in all cases: inhibition of tumour cell growth, NCI panel, 48 h; in the data active = GI50 below about 0.43 µM; inactive = the rest
U251 CNS = test system: U251 CNS
NCI/ADR-RES ovarian = test system: NCI/ADR-RES ovarian
NCI-H23 lung = test system: NCI-H23 lung
MCF7 breast = test system: MCF7 breast
MALME-3M melanoma = test system: MALME-3M melanoma
K-562 leukemia = test system: K-562 leukemia
NCI-H460 lung = test system: NCI-H460 lung
SW-620 colon = test system: SW-620 colon
CCRF-CEM leukemia = test system: CCRF-CEM leukemia
SF-295 CNS = test system: SF-295 CNS
SK-OV-3 ovarian = test system: SK-OV-3 ovarian
LOX IMVI melanoma = test system: LOX IMVI melanoma
T-47D breast = test system: T-47D breast
UACC-62 melanoma = test system: UACC-62 melanoma
PC-3 prostate = test system: PC-3 prostate
COLO 205 colon = test system: COLO 205 colon
CAKI-1 renal = test system: CAKI-1 renal
HCT-116 colon = test system: HCT-116 colon
HCC-2998 colon = test system: HCC-2998 colon
EKVX NSCLC = test system: EKVX NSCLC
IGROV1 ovarian = test system: IGROV1 ovarian
NCI-H226 lung = test system: NCI-H226 lung
MOLT-4 leukemia = test system: MOLT-4 leukemia
A549 NSCLC = test system: A549 NSCLC
TK-10 renal = test system: TK-10 renal
OVCAR-4 ovarian = test system: OVCAR-4 ovarian
SF-268 CNS = test system: SF-268 CNS
OVCAR-3 ovarian = test system: OVCAR-3 ovarian
MDA-MB-435 = test system: MDA-MB-435
A498 renal = test system: A498 renal
HOP-62 NSCLC = test system: HOP-62 NSCLC
SK-MEL-2 melanoma = test system: SK-MEL-2 melanoma
SF-539 CNS = test system: SF-539 CNS
HS 578T breast = test system: HS 578T breast
OVCAR-5 ovarian = test system: OVCAR-5 ovarian
MDA-MB-231 breast = test system: MDA-MB-231 breast
SNB-19 CNS = test system: SNB-19 CNS
OVCAR-8 ovarian = test system: OVCAR-8 ovarian
HL-60(TB) leukemia = test system: HL-60(TB) leukemia
HCT-15 colon = test system: HCT-15 colon
KM12 colon = test system: KM12 colon
RPMI-8226 leukemia = test system: RPMI-8226 leukemia
M14 melanoma = test system: M14 melanoma
BT-549 breast = test system: BT-549 breast
RXF 393 renal = test system: RXF 393 renal
786-0 renal = test system: 786-0 renal
UO-31 renal = test system: UO-31 renal
UACC-257 melanoma = test system: UACC-257 melanoma
SN12C renal = test system: SN12C renal
SNB-75 CNS = test system: SNB-75 CNS
SK-MEL-28 melanoma = test system: SK-MEL-28 melanoma
SK-MEL-5 melanoma = test system: SK-MEL-5 melanoma
ACHN renal = test system: ACHN renal
HT29 colon = test system: HT29 colon

COc1nc2c(cc1S(=O)(=O)c1ccccc1)CCc1c-2cnn1Cc1ccccc1
79.5 µM: TGI (T-47D breast)
inactive: GI50 (U251 CNS) 7.58 µM | GI50 (NCI/ADR-RES ovarian) 9.84 µM | GI50 (NCI-H23 lung) 8.45 µM | GI50 (MCF7 breast) 3.48 µM | GI50 (MALME-3M melanoma) 24.4 µM | GI50 (K-562 leukemia) 3.02 µM | GI50 (NCI-H460 lung) 7.06 µM | GI50 (SW-620 colon) > 100 µM | GI50 (CCRF-CEM leukemia) 16.8 µM | GI50 (SF-295 CNS) 9.47 µM | GI50 (SK-OV-3 ovarian) 9.86 µM | GI50 (LOX IMVI melanoma) > 100 µM | GI50 (T-47D breast) 3.09 µM | GI50 (UACC-62 melanoma) 7.52 µM | GI50 (PC-3 prostate) 4.23 µM | GI50 (COLO 205 colon) 7.32 µM | GI50 (CAKI-1 renal) 5.02 µM | GI50 (HCT-116 colon) 3.8 µM | GI50 (HCC-2998 colon) 25.3 µM | GI50 (EKVX NSCLC) 14 µM | GI50 (IGROV1 ovarian) 31.5 µM | GI50 (NCI-H226 lung) 35.8 µM | GI50 (MOLT-4 leukemia) 5.48 µM | GI50 (A549 NSCLC) > 100 µM | GI50 (TK-10 renal) > 100 µM | GI50 (OVCAR-4 ovarian) 5.22 µM | GI50 (SF-268 CNS) > 100 µM | GI50 (OVCAR-3 ovarian) 9.35 µM | GI50 (MDA-MB-435) > 100 µM | GI50 (A498 renal) 2.7 µM | GI50 (HOP-62 NSCLC) 17.7 µM | GI50 (SK-MEL-2 melanoma) 30.4 µM | GI50 (SF-539 CNS) 17 µM | GI50 (HS 578T breast) 13.3 µM | GI50 (OVCAR-5 ovarian) > 100 µM | GI50 (MDA-MB-231 breast) > 100 µM | GI50 (SNB-19 CNS) > 100 µM | GI50 (OVCAR-8 ovarian) 34.5 µM | GI50 (HL-60(TB) leukemia) 2.95 µM | GI50 (HCT-15 colon) 7.99 µM | GI50 (KM12 colon) 3.73 µM | GI50 (RPMI-8226 leukemia) 3.49 µM | GI50 (M14 melanoma) > 100 µM | GI50 (BT-549 breast) 8.07 µM | GI50 (RXF 393 renal) 6.04 µM | GI50 (786-0 renal) 13.6 µM | GI50 (UO-31 renal) 4.3 µM | GI50 (UACC-257 melanoma) 59.7 µM | GI50 (SN12C renal) > 100 µM | GI50 (SNB-75 CNS) 20 µM | GI50 (SK-MEL-28 melanoma) > 100 µM | GI50 (SK-MEL-5 melanoma) 2.89 µM | GI50 (ACHN renal) 42.6 µM | GI50 (HT29 colon) 3.89 µM
> 100 µM: TGI (U251 CNS) | TGI (NCI/ADR-RES ovarian) | TGI (NCI-H23 lung) | TGI (MALME-3M melanoma) | TGI (K-562 leukemia) | TGI (NCI-H460 lung) | TGI (SW-620 colon) | TGI (CCRF-CEM leukemia) | TGI (SF-295 CNS) | TGI (SK-OV-3 ovarian) | TGI (LOX IMVI melanoma) | TGI (UACC-62 melanoma) | TGI (PC-3 prostate) | TGI (COLO 205 colon) | TGI (CAKI-1 renal) | TGI (HCT-116 colon) | TGI (HCC-2998 colon) | TGI (EKVX NSCLC) | TGI (IGROV1 ovarian) | TGI (NCI-H226 lung) | TGI (MOLT-4 leukemia) | TGI (A549 NSCLC) | TGI (TK-10 renal) | TGI (OVCAR-4 ovarian) | TGI (SF-268 CNS) | TGI (OVCAR-3 ovarian) | TGI (MDA-MB-435) | TGI (A498 renal) | TGI (HOP-62 NSCLC) | TGI (SK-MEL-2 melanoma) | TGI (SF-539 CNS) | TGI (HS 578T breast) | TGI (OVCAR-5 ovarian) | TGI (MDA-MB-231 breast) | TGI (SNB-19 CNS) | TGI (OVCAR-8 ovarian) | TGI (HL-60(TB) leukemia) | TGI (HCT-15 colon) | TGI (KM12 colon) | TGI (RPMI-8226 leukemia) | TGI (M14 melanoma) | TGI (BT-549 breast) | TGI (RXF 393 renal) | TGI (786-0 renal) | TGI (UO-31 renal) | TGI (UACC-257 melanoma) | TGI (SN12C renal) | TGI (SNB-75 CNS) | TGI (SK-MEL-28 melanoma) | TGI (SK-MEL-5 melanoma) | TGI (ACHN renal) | TGI (HT29 colon)
38.9 µM: TGI (MCF7 breast)
